Where a SMILES comes first, the peptide text is derived from it.
Biological target: T1, CCKAR (Rattus norvegicus, UniProt P30551)
T1 construct: expressed in transfected cells; host or cells: CHO cells
T1 sequence (P30551 1-444): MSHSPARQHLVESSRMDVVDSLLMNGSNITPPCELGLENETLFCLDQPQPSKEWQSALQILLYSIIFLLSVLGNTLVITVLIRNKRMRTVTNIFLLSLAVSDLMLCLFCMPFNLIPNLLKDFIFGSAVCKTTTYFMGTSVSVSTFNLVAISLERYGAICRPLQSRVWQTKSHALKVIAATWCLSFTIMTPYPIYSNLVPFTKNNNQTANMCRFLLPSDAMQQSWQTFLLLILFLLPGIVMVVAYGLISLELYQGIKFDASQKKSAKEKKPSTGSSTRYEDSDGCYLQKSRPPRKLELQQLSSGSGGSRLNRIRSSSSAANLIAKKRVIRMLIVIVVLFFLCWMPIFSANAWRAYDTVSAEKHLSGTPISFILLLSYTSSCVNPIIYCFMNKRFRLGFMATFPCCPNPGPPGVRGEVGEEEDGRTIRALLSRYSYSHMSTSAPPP
Experiment: Inhibition of CCK-8 evoked intracellular calcium release in CHO cells stably transfected with rat CCKAR
Type: cell-based
Experimental: The activity of peptides from the CCKAR transmembrane domain were tested in transfected CHO cells that stably express rat […] et al. (1997), J. Biol. Chem. 272: 14817-14824). Sulfated cholecystokinin octapeptide was the CCKAR agonist. Determination of intracellular calcium release was performed as described in example 1 above. None of CCKAR-derived peptides served as antagonists of chemokine receptors and none could inhibit HIV-1 infection. The activity of the antagonists in inhibiting signaling through the receptor was compared to the ability to prevent agonist binding (Table 4). Inhibition of signaling was assessed in CCK-8 evoked intracellular calcium release in FURA-2/AM treated CHO cells stably transfected with rat […], et al. (1997) J. Biol. Chem. 272:14817). Inhibition of ligand binding was measured with the use of a fluorescent agonist, rhodamine green CCK-8 (RG-CCK-8) and quantitative confocal laser scanning microscopy (Tarasova, et al. (1997) J. Biol. Chem. 272:14817). Peptides derived from the first, second, and sixth transmembrane domains inhibited CCK-induced signaling through the CCKAR receptor. […] Table 4. The activity of CCKAR-derived TM peptides in inhibition of CCK-8 -induced intracellular calcium release and RG-CCK-8 binding.

Concentration, required for inhibition of signaling (CCK-8-induced intracellular calcium release, CHO cells with rat CCKAR): 2 µM
potency in inhibition of ligand signaling compared with binding (comparison of signaling and binding, Table 4): comparable potencies
Structure (SMILES): CSCC[C@H](NC(=O)[C@H](CC(C)C)NC(=O)[C@H](CC(=O)O)NC(=O)[C@H](CO)NC(=O)[C@@H](NC(=O)[C@H](C)NC(=O)[C@H](CC(C)C)NC(=O)[C@H](CO)NC(=O)[C@H](CC(C)C)NC(=O)[C@H](CC(C)C)NC(=O)[C@@H](N)Cc1ccccc1)C(C)C)C(=O)N[C@@H](CC(C)C)C(=O)N[C@@H](CS)C(=O)N[C@@H](CC(C)C)C(=O)N[C@@H](Cc1ccccc1)C(=O)N[C@@H](CS)C(=O)N[C@@H](CCSC)C(=O)N1CCC[C@H]1C(=O)N[C@@H](Cc1ccccc1)C(=O)N[C@@H](CC(N)=O)C(=O)N[C@@H](CC(C)C)C(=O)N1CCC[C@H]1C(=O)O [CCKAR-2-1] (H-FLLSLAVSDLMLCLFCMPFNLP-OH)

Reference: patent publication EP1056778B1, “G PROTEIN-COUPLED RECEPTOR ANTAGONISTS” (priority 1998, dated 1999)
